Key:
[1] = test system: johnsongrass; assay: Test C postemergence; assay type: in vivo, Sorghum halepense; details: for Plant response rating (0 to 100), Johnsongrass: 16 g ai/ha, 0 is no effect, 100 is complete control; for Johnsongrass plant response rating: 31 g ai/ha; for Johnsongrass plant response rating / Plant response rating, Johnsongrass: scale 0 to 100 (0 no effect, 100 complete control)
In short: (§1)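 Whole-plant greenhouse test with surfactant-containing solvent formulation, applied preemergence to sown loam–sand pots or postemergence to 2–18 cm plants. Scored by eye 13 to 15 days on, 0–100 scale.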

[2] = test system: wheat, winter; assay: Test C postemergence; assay type: in vivo, Triticum aestivum; details: for Plant response rating (0 to 100), Wheat: 16 g ai/ha, 0 is no effect, 100 is complete control; for Wheat plant response rating: 31 g ai/ha; for Wheat plant response rating / Plant response rating, Wheat: scale 0 to 100 (0 no effect, 100 complete control)
In short: as §1

[3] = test system: velvetleaf; assay: Test C postemergence; assay type: in vivo, Abutilon theophrasti; details: for Plant response rating (0 to 100), Velvetleaf: 16 g ai/ha, 0 is no effect, 100 is complete control; for Velvetleaf plant response rating: 31 g ai/ha; for Velvetleaf plant response rating / Plant response rating, Velvetleaf: scale 0 to 100 (0 no effect, 100 complete control)
In short: as §1

[4] = test system: pigweed; assay: Test C postemergence; assay type: in vivo, Amaranthus retroflexus; details: for Plant response rating (0 to 100), Pigweed: 16 g ai/ha, 0 is no effect, 100 is complete control; for Pigweed plant response rating: 31 g ai/ha; for Pigweed plant response rating / Plant response rating, Pigweed: scale 0 to 100 (0 no effect, 100 complete control)
In short: as §1

[5] = test system: corn; assay: Test A postemergence; assay type: in vivo, Zea mays
In short: (§2)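 Pre- and postemergence greenhouse screen. Soil: loam + sand. Spray carrier: solvent mixture, non-phytotoxic, with surfactant. Post timing at 1–2 leaves, height 2–10 cm. Readout: visual injury on a 0–100 scale roughly 10 days after application, untreated plants as reference.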

[6] = test system: blackgrass; assay: Test C postemergence; assay type: in vivo, Alopecurus myosuroides; details: for Plant response rating (0 to 100), Blackgrass: 16 g ai/ha, 0 is no effect, 100 is complete control; for Blackgrass plant response rating: 31 g ai/ha; for Blackgrass plant response rating / Plant response rating, Blackgrass: scale 0 to 100 (0 no effect, 100 complete control)
In short: as §1

[7] = test system: waterhemp; assay: Test C postemergence; assay type: in vivo, Amaranthus rudis; details: for Plant response rating (0 to 100), Waterhemp: 16 g ai/ha, 0 is no effect, 100 is complete control; for Waterhemp plant response rating: 31 g ai/ha; for Waterhemp plant response rating / Plant response rating, Waterhemp: scale 0 to 100 (0 no effect, 100 complete control)
In short: as §1

[8] = test system: ragweed; assay: Test C postemergence; assay type: in vivo, Ambrosia elatior; details: for Plant response rating (0 to 100), Ragweed: 16 g ai/ha, 0 is no effect, 100 is complete control; for Ragweed plant response rating: 31 g ai/ha; for Ragweed plant response rating / Plant response rating, Ragweed: scale 0 to 100 (0 no effect, 100 complete control)
In short: as §1

[9] = test system: soybean; assay: Test C postemergence; assay type: in vivo, Glycine max; details: for Plant response rating (0 to 100), Soybean: 16 g ai/ha, 0 is no effect, 100 is complete control; for Soybean plant response rating: 31 g ai/ha; for Soybean plant response rating / Plant response rating, Soybean: scale 0 to 100 (0 no effect, 100 complete control)
In short: as §1

[10] = test system: giant foxtail; assay: Test A preemergence; assay type: in vivo, Setaria faberii; details: for Foxtail, Giant plant response rating (0 to 100 scale): 125 g ai/ha; for Foxtail, Giant plant response rating: 500 g ai/ha, 0 to 100 scale where 0 is no effect and 100 is complete control
In short: as §2

[11] = test system: galium; assay: Test C postemergence; assay type: in vivo, Galium aparine; details: for Plant response rating (0 to 100), Galium: 16 g ai/ha, 0 is no effect, 100 is complete control; for Galium plant response rating: 31 g ai/ha; for Galium plant response rating / Plant response rating, Galium: scale 0 to 100 (0 no effect, 100 complete control)
In short: as §1

[12] = test system: oilseed rape; assay: Test C postemergence; assay type: in vivo, Brassica napus; details: for Plant response rating (0 to 100), Oilseed Rape: 16 g ai/ha, 0 is no effect, 100 is complete control; for Oilseed Rape plant response rating: 31 g ai/ha; for Oilseed Rape plant response rating / Plant response rating, Oilseed Rape: scale 0 to 100 (0 no effect, 100 complete control)
In short: as §1

[13] = test system: kochia; assay: Test C postemergence; assay type: in vivo, Kochia scoparia; details: for Plant response rating (0 to 100), Kochia: 16 g ai/ha, 0 is no effect, 100 is complete control; for Kochia plant response rating: 31 g ai/ha; for Kochia plant response rating / Plant response rating, Kochia: scale 0 to 100 (0 no effect, 100 complete control)
In short: as §1

[14] = postemergence, visual rating, 13 to 15 days
[15] = 125 g ai/ha, postemergence, visual rating
[16] = Postemergence, 62 g ai/ha, 13 to 15 days
[17] = 125 g ai/ha, 0 to 100 scale, 0 no effect, 100 complete control
[18] = 500 g ai/ha, 0 to 100 scale where 0 is no effect and 100 is complete control

With `N#Cc1cn(-c2c(C#N)cccc2Oc2ncc(Cl)cn2)nn1` [Compound 273] the “Plant response rating (0 to 100), Johnsongrass” value ([1]; postemergence) was 0, the “Johnsongrass plant response rating” value [1, 14] was 0 and the “Plant response rating, Johnsongrass” value [1, 15] was 5. The “Plant response rating, Johnsongrass” value [1, 16] was 5, the “Plant response rating (0 to 100), Wheat” value ([2]; postemergence) was 0 and the “Wheat plant response rating” value [2, 14] was 0. For the same molecule, the “Plant response rating, Wheat” value [2, 15] was 10, the “Plant response rating, Wheat” value [2, 16] was 0 and the “Plant response rating (0 to 100), Velvetleaf” value ([3]; postemergence) was 5. For the same molecule, the “Velvetleaf plant response rating” value [3, 14] was 10, the “Plant response rating, Velvetleaf” value [3, 15] was 30 and the “Plant response rating, Velvetleaf” value [3, 16] was 25. For the same molecule, the “Plant response rating (0 to 100), Pigweed” value ([4]; postemergence) was 65, the “Pigweed plant response rating” value [4, 14] was 80 and the “Plant response rating, Pigweed” value [4, 15] was 90. For the same molecule, the “Plant response rating, Pigweed” value [4, 16] was 65, the “Plant response rating, Corn” value [5, 17] was 40 and the “Plant response rating, Corn” value [5, 18] was 50. The “Plant response rating (0 to 100), Blackgrass” value ([6]; postemergence) was 5, the “Blackgrass plant response rating” value [6, 14] was 5 and the “Plant response rating, Blackgrass” value [6, 15] was 10. The “Plant response rating, Blackgrass” value [6, 16] was 10, the “Plant response rating (0 to 100), Waterhemp” value ([7]; postemergence) was 35 and the “Waterhemp plant response rating” value [7, 14] was 40. For the same molecule, the “Plant response rating, Waterhemp” value [7, 15] was 80, the “Plant response rating, Waterhemp” value [7, 16] was 65 and the “Plant response rating (0 to 100), Ragweed” value ([8]; postemergence) was 30. For the same molecule, the “Ragweed plant response rating” value [8, 14] was 55, the “Plant response rating, Ragweed” value [8, 15] was 80 and the “Plant response rating, Ragweed” value [8, 16] was 55. The “Plant response rating (0 to 100), Soybean” value ([9]; postemergence) was 60, the “Soybean plant response rating” value [9, 14] was 70 and the “Plant response rating, Soybean” value [9, 15] was 90. For the same molecule, the “Plant response rating, Soybean” value [9, 16] was 90, the “Foxtail, Giant plant response rating (0 to 100 scale)” value [10] was 90 and the “Foxtail, Giant plant response rating” value [10] was 90. The “Plant response rating (0 to 100), Galium” value ([11]; postemergence) was 55, the “Galium plant response rating” value [11, 14] was 60 and the “Plant response rating, Galium” value [11, 15] was 80. For the same molecule, the “Plant response rating, Galium” value [11, 16] was 60, the “Plant response rating (0 to 100), Oilseed Rape” value ([12]; postemergence) was 0 and the “Oilseed Rape plant response rating” value [12, 14] was 0. The “Plant response rating, Oilseed Rape” value [12, 15] was 25, the “Plant response rating, Oilseed Rape” value [12, 16] was 5 and the “Plant response rating (0 to 100), Kochia” value ([13]; postemergence) was 70. For the same molecule, the “Kochia plant response rating” value [13, 14] was 65, the “Plant response rating, Kochia” value [13, 15] was 95 and the “Plant response rating, Kochia” value [13, 16] was 80.

In the case of `N#Cc1cnn(-c2c(Oc3ncc(F)cn3)cccc2C(F)F)c1` [Compound 240], the “Plant response rating (0 to 100), Johnsongrass” value ([1]; postemergence) is reported as 10, the “Johnsongrass plant response rating” value [1, 14] is reported as 5 and the “Plant response rating, Johnsongrass” value [1, 15] is reported as 10. The “Plant response rating, Johnsongrass” value [1, 16] was 5, the “Plant response rating (0 to 100), Wheat” value ([2]; postemergence) was 0 and the “Wheat plant response rating” value [2, 14] was 0. For the same molecule, the “Plant response rating, Wheat” value [2, 15] was 5, the “Plant response rating, Wheat” value [2, 16] was 5 and the “Plant response rating (0 to 100), Velvetleaf” value ([3]; postemergence) was 10. The “Velvetleaf plant response rating” value [3, 14] was 25, the “Plant response rating, Velvetleaf” value [3, 15] was 80 and the “Plant response rating, Velvetleaf” value [3, 16] was 45. The “Plant response rating (0 to 100), Pigweed” value ([4]; postemergence) was 15, the “Pigweed plant response rating” value [4, 14] was 30 and the “Plant response rating, Pigweed” value [4, 15] was 75. The “Plant response rating, Pigweed” value [4, 16] was 45, the “Plant response rating, Corn” value [5, 17] was 30 and the “Plant response rating, Corn” value [5, 18] was 90. The “Plant response rating (0 to 100), Blackgrass” value ([6]; postemergence) was 0, the “Blackgrass plant response rating” value [6, 14] was 0 and the “Plant response rating, Blackgrass” value [6, 15] was 5. For the same molecule, the “Plant response rating, Blackgrass” value [6, 16] was 0, the “Plant response rating (0 to 100), Waterhemp” value ([7]; postemergence) was 10 and the “Waterhemp plant response rating” value [7, 14] was 25. The “Plant response rating, Waterhemp” value [7, 15] was 70, the “Plant response rating, Waterhemp” value [7, 16] was 55 and the “Plant response rating (0 to 100), Ragweed” value ([8]; postemergence) was 35. The “Ragweed plant response rating” value [8, 14] was 40, the “Plant response rating, Ragweed” value [8, 15] was 75 and the “Plant response rating, Ragweed” value [8, 16] was 55. For the same molecule, the “Plant response rating (0 to 100), Soybean” value ([9]; postemergence) was 30, the “Soybean plant response rating” value [9, 14] was 40 and the “Plant response rating, Soybean” value [9, 15] was 75. For the same molecule, the “Plant response rating, Soybean” value [9, 16] was 60, the “Foxtail, Giant plant response rating (0 to 100 scale)” value [10] was 100 and the “Foxtail, Giant plant response rating” value [10] was 100. For the same molecule, the “Plant response rating (0 to 100), Galium” value ([11]; postemergence) was 35, the “Galium plant response rating” value [11, 14] was 40 and the “Plant response rating, Galium” value [11, 15] was 70. For the same molecule, the “Plant response rating, Galium” value [11, 16] was 55, the “Plant response rating (0 to 100), Oilseed Rape” value ([12]; postemergence) was 30 and the “Oilseed Rape plant response rating” value [12, 14] was 35. For the same molecule, the “Plant response rating, Oilseed Rape” value [12, 15] was 60, the “Plant response rating, Oilseed Rape” value [12, 16] was 55 and the “Plant response rating (0 to 100), Kochia” value ([13]; postemergence) was 40. The “Kochia plant response rating” value [13, 14] was 45, the “Plant response rating, Kochia” value [13, 15] was 90 and the “Plant response rating, Kochia” value [13, 16] was 45.

Reference: patent US9695155B2, “Herbicidal substituted pyrimidinyloxy benzene compounds” (E. I. DU PONT DE NEMOURS AND COMPANY, priority 2013, dated 2017)
